The target of assay [1] is PDE4B (Homo sapiens (Human), UniProt Q07343). Description: PDE4 Inhibition In Vitro Assay (PDE4B). It is filed as biochemical. The conditions noted are these: human recombinant PDE4B; 15 minutes at 30° C.; 2.5% DMSO. On the procedure:
PDE4 Inhibition In Vitro Assay
The phosphodiesterase assays are performed essentially according to the method described in Loughney, K., et al., J. Biol. Chem., 271, pp. 796-806 (1996). PDE4A, PDE4B, PDE4C, PDE4D, and PDE5 human recombinant proteins are expressed and purified from Saccharomyes cerevisiae that lack endogenous PDEs. The phosphodiesterase enzymes are diluted on ice with enzyme dilution buffer (25 mM Tris, pH 7.5, 0.1 mM DTT, 5.0 mM MgCl2, 100 mM NaCl, 5 μM ZnSO4, 100 μg/mL BSA) to give approximately 20%-40% hydrolysis of cyclic nucleotide monophosphate (cNMP) in the absence of inhibitor.
The stock solution of test compounds are diluted on the Beckman BioMek™ 1000 workstation to span a concentration range of 4.5 log units in 0.5 log increments. The DMSO concentration in the final test system is 2.5% for all PDE enzymes. The final test compound concentration tested ranged from 0.03 nM to 1 μM.
The assay is performed in a 96-well microtiter plate format on a Beckman BioMek™ 1000 robotic station. Each row of the plate represents a 10-point dose response curve containing blank (no enzyme), non-inhibited control, and inhibitor dilutions spanning 4.5 log units in concentration in 0.5 log increments. Assay stock solutions are loaded into the Biomek™ reservoirs (water, inhibitor diluent [2.5% or 10% DMSO], 5× PDE assay buffer, substrate, inhibitor solutions, enzyme solutions, snake venom nucleotidase, and charcoal suspension). The reaction is initiated with enzyme, and incubated for 15 minutes at 30° C. An excess of Crotalus atrox snake venom nucleotidase (5 μL/well) is then added and the mixture is incubated for an additional 3 minutes. The reaction is terminated by the addition of 200 μL of activated charcoal suspension, after which the plate is centrifuged for 5 minutes at 750×g. A transfer program is run in which 200 μL of supernatant is removed and placed into a new plate. The amount of radioactivity released as phosphate is determined in a Wallac MicroBeta Plate™ counter.
The reduced data at each concentration of inhibitor is analyzed using a four-, three- or two-parameter logistic dose response model to provide an IC50 value.

In assay [2] the test system is chronic cyclophosphamide (CYP)-induced overactive bladder mouse model. Description: Overactive Bladder In Vivo Model. The conditions noted are these: tadalafil 10 mg/kg orally daily; CYP-induced OAB female C57/B16 mice; day 8, 4 hour urine collection. The protocol:
Overactive Bladder In Vivo Model
The in vivo effect of PDE4 inhibitors on OAB is studied with a chronic cyclophosphamide (CYP)-induced overactive bladder mouse model adapted from Boudes et al., Neurourol. Urodynam. 2011. In a typical study, female C57/B16 mice, approximately 20 grams in body weight (Harlan Laboratories, Inc., Indianapolis, Ind.) are used. Mice are randomized by body weight into groups one day before the start of the study. Mice are individually housed and maintained on a 12 hour light/dark cycle at 22° C. with ad lib access to food (TD 2014 with 0.72% Ca and 0.61% P, 990 IU/g D3, Teklad™, Madison, Wis.) and water Animals receive cyclophosphamide (dissolved in physiological saline) i.p. administration at 100 mg/kg on days 1, 3, 5, and 7 to chronically induce OAB. The vehicle control group received daily vehicle (HEC 1%/Tween 80 0.25%/Antifoam 0.05%) administered orally. All other groups are administered orally tadalafil at 10 mg/kg in combination with 0.1, 1.0, or 10.0 mg/kg of test compound daily at a volume of 200 μl/mouse. On day 8, mice are housed in urine collection chambers with a filter paper placed underneath chamber. Prior to urine collection, gavages of 1 ml water are given to each mouse. […] Voiding frequency and volume/void are calculated using Image J software (NIH). Data are statistically analyzed with JMP8® software (Cary, N.C.). […]

Molecules are shown by their SMILES.

PDE4B, sequence (Q07343 whole entry): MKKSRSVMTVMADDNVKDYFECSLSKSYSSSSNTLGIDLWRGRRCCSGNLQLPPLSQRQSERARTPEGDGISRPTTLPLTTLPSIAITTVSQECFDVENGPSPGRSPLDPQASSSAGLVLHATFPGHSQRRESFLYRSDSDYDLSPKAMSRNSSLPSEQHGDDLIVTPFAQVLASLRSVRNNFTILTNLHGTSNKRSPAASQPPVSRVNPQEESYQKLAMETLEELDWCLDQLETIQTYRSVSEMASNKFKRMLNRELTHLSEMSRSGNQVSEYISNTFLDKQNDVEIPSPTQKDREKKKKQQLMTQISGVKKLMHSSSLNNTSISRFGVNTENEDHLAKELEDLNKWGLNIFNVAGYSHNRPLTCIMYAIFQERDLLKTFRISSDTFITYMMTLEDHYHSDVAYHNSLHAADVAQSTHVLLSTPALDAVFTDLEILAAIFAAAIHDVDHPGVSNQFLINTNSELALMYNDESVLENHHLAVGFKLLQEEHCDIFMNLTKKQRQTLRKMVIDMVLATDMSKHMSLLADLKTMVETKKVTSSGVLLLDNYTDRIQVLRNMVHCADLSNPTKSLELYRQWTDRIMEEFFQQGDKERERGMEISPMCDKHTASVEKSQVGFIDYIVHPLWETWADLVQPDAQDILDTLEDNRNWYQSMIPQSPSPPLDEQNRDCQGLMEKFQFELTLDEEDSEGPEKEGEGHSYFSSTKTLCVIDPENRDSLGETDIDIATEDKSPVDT

Usually IC50 stands for the concentration that gives 50% inhibition. Regarding `COc1ccc([C@@H]2CN(C(=O)[C@@H](O)CO)C[C@@]2(C)[C@@H](C)O)cc1OC1CN(c2ccc(Cl)cn2)C1` [Example 12, (2S)-3-[(3S,4S)-3-[(1R)-1-hdyroxyethyl]-4-(4-methoxy-3-{[1-(5-chloropyridin-2-yl)azetidin-3-yl]oxy}phenyl)-3-methylpyrrolidin-1-yl]-3-oxopropane-1,2-diol], the IC50 in assay [1] is 0.16 nM.

Turning to `COc1ccc([C@@H]2CN(C(=O)[C@@H](O)CO)C[C@@]2(C)[C@@H](C)O)cc1OC1CN(c2ccncc2)C1` [Example 3, (2S)-3-[(3S,4S)-3-[(1R)-1-hydroxyethyl]-4-{4-methoxy-3-[(1-pyridin-4-ylazetidin-3-yl)oxy]phenyl}-3-methylpyrrolidin-1-yl]-3-oxopropane-1,2-diol], in assay [1], the IC50 came out at 7.7 nM.

`COc1ccc([C@@H]2CN(C(=O)[C@@H](O)CO)C[C@@]2(C)[C@@H](C)O)cc1OC1CN(c2ncccn2)C1` [Example 5, (2S)-3-[(3S,4S)-3-[(1R)-1-hydroxyethyl]-4-{4-methoxy-3-[(1-pyrimidin-2-ylazetidin-3-yl)oxy]phenyl}-3-methylpyrroldiin-1-yl]-3-oxopropane-1,2-diol]: the IC50 in assay [1] was 1.5 nM.

Take `COc1ccc([C@@H]2CN(C(=O)[C@@H](O)CO)C[C@@]2(C)[C@@H](C)O)cc1OC1CN(c2cccnc2)C1` [Example 2, (2S)-3-[(3S,4S)-3-[(1R)-1-hydroxyethyl]-4-{4-methoxy-3-[(1-pyridin-3-ylazetidin-3-yl)oxy]phenyl}-3-methylpyrrolidin-1-yl]-3-oxopropane-1,2-diol]: the IC50 in assay [1] stood at 1.8 nM.

Consider `COc1ccc([C@@H]2CN(C(=O)[C@@H](O)CO)C[C@@]2(C)[C@@H](C)O)cc1OC1CN(c2ccncn2)C1` [Example 13, (2S)-3-[(3S,4S)-3-[(1R)-1-hydroxyethyl]-4-(4-methoxy-3-{[1-(pyrimidin-4-yl)azetidin-3-yl]oxy}phenyl)-3-methylpyrrolidin-1-yl]-3-oxopropane-1,2-diol], for which the IC50 in assay [1] was found to be 3.8 nM.

In the case of `COc1ccc([C@@H]2CN(C(=O)[C@@H](O)CO)C[C@@]2(C)[C@@H](C)O)cc1OC1CN(c2cc(C#N)ccn2)C1` [Example 7, (2S)-3-[(3S,4S)-3-[(1R)-1-hydroxyethyl]-4-(4-methoxy-3-{[1-(4-cyanopyridin-2-yl)azetidin-3-yl]oxy}phenyl)-3-methylpyrrolidin-1-yl]-3-oxopropane-1,2-diol], the IC50 in assay [1] amounted to 0.44 nM.

On to `CN1CC(=O)N2[C@H](c3ccc4c(c3)OCO4)c3[nH]c4ccccc4c3C[C@@H]2C1=O` [tadalafil], for which, in assay [2], the urinary frequency entry was “no significant activity” and the volume per void result is on record as “no significant activity”.

Consider `COc1ccc([C@@H]2CN(C(=O)[C@@H](O)CO)C[C@@]2(C)[C@@H](C)O)cc1OC1CN(c2cc(Cl)ncn2)C1` [Example 8, (2S)-3-[(3S,4)S-3-[(1R)-1-hydroxyethyl]-4-{4-methoxy-3-[(1-(6-chloropyrimidin-4-yl)azetidin-3-yl)oxy]phenyl}-3-methylpyrrolidin-1-yl]-3-oxopropane-1,2-diol], for which the IC50 in assay [1] was found to be 0.53 nM.

In the case of `[2H]C([2H])([2H])c1ccc(N2CC(Oc3cc([C@@H]4CN(C(=O)[C@@H](O)CO)C[C@@]4(C)[C@@H](C)O)ccc3OC)C2)nc1` [Example 14, (S)-2,3-dihydroxy-1-((3S,4S)-3-((R)-1-hydroxyethyl)-4-(4-methoxy-3-((1-(5-(methyl-D3)pyridin-2-yl)azetidin-3-yl)oxy)phenyl)-3-methylpyrrolidin-1-yl)propan-1-one], the IC50 in assay [1] turned out to be 0.13 nM.

In the case of `COc1ccc([C@@H]2CN(C(=O)[C@@H](O)CO)C[C@@]2(C)[C@@H](C)O)cc1OC1CN(c2ccc(C#N)cn2)C1` [Example 6, (2S)-3-[(3S,4S)-3-[(1R)-1-hydroxyethyl]-4-(4-methoxy-3-{[1-(5-cyanopyridin-2-yl)azetidin-3-yl]oxy}phenyl)-3-methylpyrrolidin-1-yl]-3-oxopropane-1,2-diol], in assay [1], the IC50 is 0.31 nM.

(Values after patent US10781202B2, “Azetidinyloxyphenylpyrrolidine compounds” (Eli Lilly and Company, priority 2014, dated 2020).)
